Where “and” joins values, the source holds several entries; their conditions need not be identical. Equal values may be shown once. Toxic doses and inconclusive results are not listed. The calls were made as follows: active = survival T/C of 150% or more; inactive = T/C below 125% in these data.
Tested on: CD2F1 mice, L1210 leukemia ip, survival T/C
Assay: NCI In Vivo Anticancer Drug Screen. Data for tumor model L1210 Leukemia (intraperitoneal) in CD2F1 (CDF1) mice
Conditions: higher = longer survival
Summary of the method: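 Transplantable tumor in mice; compound-treated vs vehicle-treated groups. Read-out = treated/control ratio of the measured endpoint.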

[1] = endpoint: mean survival time, dose: 100.0 mg/kg/injection, schedule: Q01DX009 (ip), vehicle: saline with Tween-80
[2] = endpoint: mean survival time, dose: 100.0 mg/kg/injection, schedule: Q04DX003 (ip), vehicle: saline with Tween-80
[3] = endpoint: mean survival time, dose: 200.0 mg/kg/injection, schedule: Q01DX009 (ip), vehicle: saline with Tween-80
[4] = endpoint: mean survival time, dose: 200.0 mg/kg/injection, schedule: Q04DX003 (ip), vehicle: saline with Tween-80
[5] = endpoint: mean survival time, dose: 400.0 mg/kg/injection, schedule: Q01DX009 (ip), vehicle: saline with Tween-80
[6] = endpoint: mean survival time, dose: 400.0 mg/kg/injection, schedule: Q04DX003 (ip), vehicle: saline with Tween-80
[7] = endpoint: mean survival time, dose: 100.0 mg/kg/injection, schedule: Q01DX001 (ip), vehicle: saline with Tween-80
[8] = endpoint: mean survival time, dose: 200.0 mg/kg/injection, schedule: Q01DX001 (ip), vehicle: saline with Tween-80
[9] = endpoint: mean survival time, dose: 400.0 mg/kg/injection, schedule: Q01DX001 (ip), vehicle: saline with Tween-80
[10] = endpoint: mean survival time, dose: 75.0 mg/kg/injection, schedule: Q01DX001 (ip), vehicle: other
[11] = endpoint: mean survival time, dose: 100.0 mg/kg/injection, schedule: Q04DX002 (ip), vehicle: saline with Tween-80
[12] = endpoint: mean survival time, dose: 200.0 mg/kg/injection, schedule: Q04DX002 (ip), vehicle: saline with Tween-80
[13] = endpoint: mean survival time, dose: 100.0 mg/kg/injection, schedule: Q01DX001 (ip), vehicle: saline
[14] = endpoint: mean survival time, dose: 12.5 mg/kg/injection, schedule: Q01DX009 (ip), vehicle: olive oil, sesame oil, peanut oil
[15] = endpoint: mean survival time, dose: 25.0 mg/kg/injection, schedule: Q01DX009 (ip), vehicle: olive oil, sesame oil, peanut oil
[16] = endpoint: mean survival time, dose: 50.0 mg/kg/injection, schedule: Q01DX009 (ip), vehicle: olive oil, sesame oil, peanut oil
[17] = endpoint: mean survival time, dose: 100.0 mg/kg/injection, schedule: Q01DX009 (ip), vehicle: olive oil, sesame oil, peanut oil
[18] = endpoint: mean survival time, dose: 200.0 mg/kg/injection, schedule: Q01DX009 (ip), vehicle: olive oil, sesame oil, peanut oil
[19] = endpoint: mean survival time, dose: 50.0 mg/kg/injection, schedule: Q01DX009 (ip), vehicle: saline with Tween-80

Measured: T/C

O=C1c2ccccc2-c2ccc3c4ccc5c6c(ccc(c7ccc1c2c73)c64)C(=O)c1ccccc1-5
inactive: [1] 89 % of control | [2] 90 % of control | [3] 89 % of control | [4] 87 % of control | [5] 93 % of control | [6] 96 % of control

CCOC(=O)Cc1ccncc1CC
inactive: [7] 94 % of control | [1] 97 % of control | [8] 91 % of control | [3] 104 % of control | [9] 100 % of control | [5] 101 % of control

Cc1[nH]nc(C(N)=O)c1N=NN1CCOCC1
inactive: [10] 101 % of control | endpoint: mean survival time, dose: 150.0 mg/kg/injection, schedule: Q01DX001 (ip), vehicle: other 106 % of control | endpoint: mean survival time, dose: 300.0 mg/kg/injection, schedule: Q01DX001 (ip), vehicle: other 109 % of control

COc1ccccc1NC(=O)Oc1ccc(C(C)(C)C)cc1
inactive: [11] 96 % of control | [12] 88 % of control | endpoint: mean survival time, dose: 400.0 mg/kg/injection, schedule: Q04DX002 (ip), vehicle: saline with Tween-80 100 % of control

C=C1C(=O)OC2CCCCC3OC3C12 (stereo unspecified)
inactive: endpoint: mean survival time, dose: 25.0 mg/kg/injection, schedule: Q01DX001 (ip), vehicle: saline 108 % of control | endpoint: mean survival time, dose: 50.0 mg/kg/injection, schedule: Q01DX001 (ip), vehicle: saline 96 % of control | [13] 91 % of control

O=C1CCCC1CC1CCCC1=O (stereo unspecified)
inactive: [1] 102 % of control | [3] 106 % of control | [5] 106 % of control

O=C(O)c1ccccc1F
inactive: [7] 96 % of control | [8] 107 % of control

CCCCCCCCN(C#N)CCCCCCCC
inactive: [1] 100 % of control | [3] 95 % of control | [5] 97 % of control

Nc1nc2ncc(CNc3ccc(C(=O)NC(CCC(=O)O)C(=O)O)cn3)nc2c(=O)[nH]1 (stereo unspecified)
inactive: [10] 102 % of control

CCOC(=O)C1SCSCC1=O (stereo unspecified)
inactive: [1] 101 % of control | [3] 101 % of control | [5] 98 % of control

CCC/C=C\CC(C)C(C)CC (stereo unspecified)
inactive: endpoint: mean survival time, dose: 100.0 mg/kg/injection, schedule: Q04DX003 (ip), vehicle: saline 101 % of control | endpoint: mean survival time, dose: 200.0 mg/kg/injection, schedule: Q04DX003 (ip), vehicle: saline 108 % of control | endpoint: mean survival time, dose: 400.0 mg/kg/injection, schedule: Q04DX003 (ip), vehicle: saline 104 % of control

c1ccc(CCNCc2ccccn2)nc1
inactive: endpoint: mean survival time, dose: 25.0 mg/kg/injection, schedule: Q04DX002 (ip), vehicle: saline 96 % of control | endpoint: mean survival time, dose: 50.0 mg/kg/injection, schedule: Q04DX002 (ip), vehicle: saline 101 % of control | [13] 94 % of control | endpoint: mean survival time, dose: 100.0 mg/kg/injection, schedule: Q04DX002 (ip), vehicle: saline 96 % of control

Cc1c(Cl)c(Cl)c(Cl)c(I)c1Cl
inactive: endpoint: mean survival time, dose: 50.0 mg/kg/injection, schedule: Q04DX002 (ip), vehicle: saline with Tween-80 96 % of control | [7] 97 % of control | [11] 93 % of control | [8] 102 % of control | [12] 93 % of control | [9] 97 % of control

CC(C)(Nc1ccccc1)c1cccs1
inactive: [2] 101 % of control | [4] 97 % of control | [6] 112 % of control

Oc1c(Cl)cc(Cl)cc1/C=N/NC(=S)Nc1cc(C(F)(F)F)cc(C(F)(F)F)c1
inactive: endpoint: mean survival time, dose: 6.25 mg/kg/injection, schedule: Q01DX009 (ip), vehicle: olive oil, sesame oil, peanut oil 102 % of control | [14] 100 % of control | [15] 100 % of control | [16] 102 % of control | [17] 102 % of control | [18] 94 % of control

CCOC(=O)c1c(NC(=O)CBr)sc(C)c1C
inactive: endpoint: mean survival time, dose: 75.0 mg/kg/injection, schedule: Q01DX001 (ip), vehicle: saline 104 % of control | endpoint: mean survival time, dose: 150.0 mg/kg/injection, schedule: Q01DX001 (ip), vehicle: saline 98 % of control | endpoint: mean survival time, dose: 300.0 mg/kg/injection, schedule: Q01DX001 (ip), vehicle: saline 104 % of control

Oc1cccc2ccccc12
inactive: endpoint: median survival time, dose: 50.0 mg/kg/injection, schedule: Q01DX005 (ip), vehicle: water 95 % of control | endpoint: median survival time, dose: 100.0 mg/kg/injection, schedule: Q01DX005 (ip), vehicle: water 95 % of control | endpoint: median survival time, dose: 200.0 mg/kg/injection, schedule: Q01DX005 (ip), vehicle: water 101 % of control | endpoint: median survival time, dose: 400.0 mg/kg/injection, schedule: Q01DX005 (ip), vehicle: water 93 % of control

CO[C@]12[C@@H](COC(N)=O)C3=C(C(=O)C(C)=C(NCCCO)C3=O)N1C[C@@H]1[C@H]2N1C (stereo partly specified)
inactive: endpoint: mean survival time, dose: 1.5 mg/kg/injection, schedule: Q01DX001 (ip), vehicle: water 101 % of control | endpoint: mean survival time, dose: 3.0 mg/kg/injection, schedule: Q01DX001 (ip), vehicle: water 101 % of control | endpoint: mean survival time, dose: 6.0 mg/kg/injection, schedule: Q01DX001 (ip), vehicle: water 102 % of control | endpoint: mean survival time, dose: 12.0 mg/kg/injection, schedule: Q01DX001 (ip), vehicle: water 107 % of control | endpoint: mean survival time, dose: 18.75 mg/kg/injection, schedule: Q01DX001 (ip), vehicle: distilled water + Tween-80 104 % of control | endpoint: mean survival time, dose: 24.0 mg/kg/injection, schedule: Q01DX001 (ip), vehicle: water 101 % of control | endpoint: mean survival time, dose: 36.0 mg/kg/injection, schedule: Q01DX001 (ip), vehicle: water 102 % of control | endpoint: mean survival time, dose: 37.5 mg/kg/injection, schedule: Q01DX001 (ip), vehicle: distilled water + Tween-80 107 % of control | endpoint: mean survival time, dose: 75.0 mg/kg/injection, schedule: Q01DX001 (ip), vehicle: distilled water + Tween-80 107 % of control | endpoint: mean survival time, dose: 150.0 mg/kg/injection, schedule: Q01DX001 (ip), vehicle: distilled water + Tween-80 116 % of control

O=C(NCCCl)NC1CCSc2ccccc21 (stereo unspecified)
inactive: [19] 95 % of control | [1] 91 % of control | [3] 91 % of control

Cc1ccc(NC(=O)Oc2ccc(C(C)(C)C)cc2Br)c(C)c1
inactive: [19] 101 % of control | [1] 96 % of control | [3] 116 % of control

NCc1cn(C2OC(CO)C(O)C2O)c2ncnc(N)c12 (stereo unspecified)
inactive: endpoint: mean survival time, dose: 3.13 mg/kg/injection, schedule: Q01DX005 (ip), vehicle: water 118 % of control | endpoint: mean survival time, dose: 6.25 mg/kg/injection, schedule: Q01DX005 (ip), vehicle: water 95 % of control

COc1cc(C(=O)NC(=S)Nc2ccc3ccccc3c2)cc(OC)c1OC
inactive: [1] 90 % of control | [3] 94 % of control

Clc1cccc(-c2nc3ccccc3c3ccccc23)c1
inactive: [2] 93 % of control | [6] 98 % of control

Cn1c(=O)c2c(nc(Cl)n2Cc2ccccc2)n(C)c1=O
inactive: endpoint: mean survival time, dose: 12.5 mg/kg/injection, schedule: Q01DX005 (ip), vehicle: saline with Tween-80 93 % of control | endpoint: mean survival time, dose: 25.0 mg/kg/injection, schedule: Q01DX005 (ip), vehicle: saline with Tween-80 88 % of control | endpoint: mean survival time, dose: 50.0 mg/kg/injection, schedule: Q01DX005 (ip), vehicle: saline with Tween-80 87 % of control | endpoint: mean survival time, dose: 100.0 mg/kg/injection, schedule: Q01DX005 (ip), vehicle: saline with Tween-80 93 % of control

Brc1c(NC2=NCCN2)ccc2nccnc12
inactive: endpoint: median survival time, dose: 1.56 mg/kg/injection, schedule: Q01DX009 (ip), vehicle: saline 102 % of control | endpoint: median survival time, dose: 3.12 mg/kg/injection, schedule: Q01DX009 (ip), vehicle: saline 96 % of control and 111 % of control | endpoint: median survival time, dose: 6.25 mg/kg/injection, schedule: Q01DX009 (ip), vehicle: saline 115 % of control and 119 % of control and 109 % of control | endpoint: median survival time, dose: 100.0 mg/kg/injection, schedule: Q01DX009 (ip), vehicle: saline 118 % of control

OCc1ccc(O)cc1
inactive: endpoint: mean survival time, dose: 100.0 mg/kg/injection, schedule: Q04DX003 (ip), vehicle: other 100 % of control | endpoint: mean survival time, dose: 200.0 mg/kg/injection, schedule: Q04DX003 (ip), vehicle: other 95 % of control | endpoint: mean survival time, dose: 400.0 mg/kg/injection, schedule: Q04DX003 (ip), vehicle: other 94 % of control

Oc1ccc(O)c(/C=N/NC(=S)NC2CC3CC2C2C=CCC32)c1 (stereo unspecified)
inactive: [14] 93 % of control | [15] 96 % of control | [16] 100 % of control | [17] 102 % of control | [18] 87 % of control | endpoint: mean survival time, dose: 400.0 mg/kg/injection, schedule: Q01DX009 (ip), vehicle: olive oil, sesame oil, peanut oil 94 % of control

Reference: PubChem BioAssay AID256 (DTP/NCI, 2004)
